Test results from US9481676B2, “Azepino[4,5-B]indoles and methods of use” (Medivation Technologies, Inc., priority 2008, dated 2016).

The compounds below were run against T1, human recombinant adrenergic α2B receptor (Homo sapiens, UniProt P18089) (assay: Adrenergic alpha2B radioligand binding ([3H]Rauwolscine)). Details: compound at 1 μM; read-out: Adrenergic (1 μM) α2B, percent inhibition of specific binding.
T1 construct: expressed in transfected cells; host or cells: CHO-K1 cells
T1 sequence (P18089 1-450): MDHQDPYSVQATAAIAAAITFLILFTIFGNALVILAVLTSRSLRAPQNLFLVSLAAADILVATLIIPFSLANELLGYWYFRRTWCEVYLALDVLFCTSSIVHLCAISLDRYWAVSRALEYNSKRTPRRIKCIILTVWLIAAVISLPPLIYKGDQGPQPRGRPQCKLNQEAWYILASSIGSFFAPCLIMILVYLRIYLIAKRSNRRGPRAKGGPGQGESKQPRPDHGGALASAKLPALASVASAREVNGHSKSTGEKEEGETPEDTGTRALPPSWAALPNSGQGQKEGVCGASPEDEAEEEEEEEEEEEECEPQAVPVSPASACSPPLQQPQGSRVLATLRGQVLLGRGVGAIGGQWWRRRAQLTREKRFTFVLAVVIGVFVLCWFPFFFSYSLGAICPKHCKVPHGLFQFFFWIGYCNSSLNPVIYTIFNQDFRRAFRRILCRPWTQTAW
Method: To evaluate in radioligand binding assays the activity of compounds of the invention, human recombinant adrenergic α2B receptor expressed in Chinese hamster ovary (CHO-K1) cells (Uhlen S et al. Eur J. Pharmacol. 343(1):93, 1998) in a modified Tris-HCl buffer (50 mM Tris-HCl, pH 7.4, 12.5 mM MgCl2, 1 mM EDTA, 0.2% BSA) was used. Compounds of the invention were incubated with 2.5 nM [^3H]Rauwolscine for 60 min. at 25° C. Non-specific binding was estimated in the presence of 10 μM Prozosin. Receptor proteins were filtered and washed, the filters were then counted to determine [^3H]Rauwolscine specifically bound. Compounds were screened at 1 μM or lower, using 1% DMSO as vehicle. Biochemical assay results are presented as the percent inhibition of specific binding in Table 5.
In the case of `Cc1ccc2c(c1)c1c(n2CC(=O)N2CCCCC2)CCN(C)CC1` [Compound No. 32, 2-(2,3,4,5-tetrahydro-3,9-dimethylazepino[4,5-b]indol-6(1H)-yl)-1-(piperidin-1-yl)ethanone], the inhibition at 1 µM is reported as 22%. With `C/C(=C\n1c2c(c3cc(C)ccc31)CCN(C)CC2)c1ccc(Cl)cc1` [Compound No. 33, 6-((E)-2-(4-chlorophenyl)prop-1-enyl)-1,2,3,4,5,6-hexahydro-3,9-dimethylazepino[4,5-b]indole] the inhibition at 1 µM was 103%. `C/C(=C\n1c2c(c3cc(C)ccc31)CCN(C)CC2)c1ccc(F)cc1` [Compound No. 34, 6-((E)-2-(4-fluorophenyl)prop-1-enyl)-1,2,3,4,5,6-hexahydro-3,9-dimethylazepino[4,5-b]indole] gave an inhibition at 1 µM of 110%. For `C=C(Cn1c2c(c3cc(Cl)ccc31)CCN(C)CC2)c1ccc(Cl)cc1` [Compound No. 35, 9-chloro-6-(2-(4-chlorophenyl)allyl)-3-methyl-1,2,3,4,5,6-hexahydroazepino[4,5-b]indole], the inhibition at 1 µM was 112%. Compound `C/C(=C\n1c2c(c3cc(Cl)ccc31)CCN(C)CC2)c1ccc(Cl)cc1` [Compound No. 36, 9-chloro-6-((E)-2-(4-chlorophenyl)prop-1-enyl)-1,2,3,4,5,6-hexahydro-3-methylazepino[4,5-b]indole] has an inhibition at 1 µM of 101%. Work on `CN1CCc2c(n(CC(=O)Nc3ccc(F)cc3)c3ccc(Cl)cc23)CC1` [Compound No. 37, 2-(9-chloro-2,3,4,5-tetrahydro-3-methylazepino[4,5-b]indol-6(1H)-yl)-N-(4-fluorophenyl) acetamide] yielded an inhibition at 1 µM of 70%. Compound `Cc1ccc2c(c1)c1c(n2CC(=O)N2CCOCC2)CCN(C)CC1` [Compound No. 38, 2-(2,3,4,5-tetrahydro-3,9-dimethylazepino[4,5-b]indol-6(1H)-yl)-1-morpholinoethanone] has an inhibition at 1 µM of 83%. `Cc1ccc2c(c1)c1c(n2/C=C/c2ccc(F)cc2)CCN(C)CC1` [Compound No. 39, 6-(4-fluorostyryl)-1,2,3,4,5,6-hexahydro-3,9-dimethylazepino[4,5-b]indole] was tested, and the inhibition at 1 µM was 105%. For `CN1CCc2c(n(CC(O)c3ccccc3F)c3ccc(Cl)cc23)CC1` (stereo not shown) [Compound No. 40, 2-(9-chloro-2,3,4,5-tetrahydro-3-methylazepino[4,5-b]indol-6(1H)-yl)-1-(2-fluorophenyl)ethanol], the inhibition at 1 µM was 101%. For `Cc1ccc2c(c1)c1c(n2CC(O)c2ccccc2F)CCN(C)CC1` (stereo not shown) [Compound No. 41, 1-(2-fluorophenyl)-2-(2,3,4,5-tetrahydro-3,9-dimethylazepino[4,5-b]indol-6(1H)-yl)ethanol], the inhibition at 1 µM was 104%. `CN1CCc2c(n(CC(O)c3ccncc3)c3ccc(Cl)cc23)CC1` (stereo not shown) [Compound No. 42, 2-(9-chloro-2,3,4,5-tetrahydro-3-methylazepino[4,5-b]indol-6(1H)-yl)-1-(pyridin-4-yl)ethanol] gave an inhibition at 1 µM of 107%. Work on `Cc1ccc2c(c1)c1c(n2CC(O)c2ccncc2)CCN(C)CC1` (stereo not shown) [Compound No. 43, 2-(2,3,4,5-tetrahydro-3,9-dimethylazepino[4,5-b]indol-6(1H)-yl)-1-(pyridin-4-yl)ethanol] yielded an inhibition at 1 µM of 107%. With `Cc1ccc2c(c1)c1c(n2CC(=O)Nc2ccc(F)cc2)CCN(C)CC1` [Compound No. 44, N-(4-fluorophenyl)-2-(2,3,4,5-tetrahydro-3,9-dimethylazepino[4,5-b]indol-6(1H)-yl)acetamide] the inhibition at 1 µM was 12%. `Cc1ccc2c(c1)c1c(n2CC(=O)N2CCCC2)CCN(C)CC1` [Compound No. 45, 2-(2,3,4,5-tetrahydro-3,9-dimethylazepino[4,5-b]indol-6(1H)-yl)-1-(pyrrolidin-1-yl)ethanone] was tested, and the inhibition at 1 µM was 9%. `Cc1ccc(CCn2c3c(c4cc(Cl)ccc42)CCN(C)CC3)cc1` [Compound No. 46, 9-chloro-3-methyl-6-(4-methylphenethyl)-1,2,3,4,5,6-hexahydroazepino[4,5-b]indole] gave an inhibition at 1 µM of 107%. `COc1ccc(C(O)Cn2c3c(c4cc(Cl)ccc42)CCN(C)CC3)cc1` (stereo not shown) [Compound No. 47, 2-(9-chloro-2,3,4,5-tetrahydro-3-methylazepino[4,5-b]indol-6(1H)-yl)-1-(4-methoxyphenyl)ethanol] gave an inhibition at 1 µM of 105%. `COc1ccc(C(O)Cn2c3c(c4cc(C)ccc42)CCN(C)CC3)cc1` (stereo not shown) [Compound No. 48, 2-(2,3,4,5-tetrahydro-3,9-dimethylazepino[4,5-b]indol-6(1H)-yl)-1-(4-methoxyphenyl) ethanol] showed an inhibition at 1 µM of 103%. `COc1ccc(C(O)Cn2c3c(c4cc(Cl)ccc42)CCN(C)CC3)c(F)c1` (stereo not shown) [Compound No. 49, 2-(9-chloro-2,3,4,5-tetrahydro-3-methylazepino[4,5-b]indol-6(1H)-yl)-1-(2-fluoro-4-methoxyphenyl) ethanol] showed an inhibition at 1 µM of 106%. Work on `COc1ccc(C(O)Cn2c3c(c4cc(C)ccc42)CCN(C)CC3)c(F)c1` (stereo not shown) [Compound No. 50, 1-(2-fluoro-4-methoxyphenyl)-2-(2,3,4,5-tetrahydro-3,9-dimethylazepino[4,5-b]indol-6(1H)-yl)ethanol] yielded an inhibition at 1 µM of 102%. `CN1CCc2c(n(CC(O)c3ccc(F)cc3)c3ccc(Cl)cc23)CC1` (stereo not shown) [Compound No. 51, 2-(9-chloro-2,3,4,5-tetrahydro-3-methylazepino[4,5-b]indol-6(1H)-yl)-1-(4-fluorophenyl) ethanol] gave an inhibition at 1 µM of 103%. Compound `Cc1ccc2c(c1)c1c(n2CC(O)c2ccc(F)cc2)CCN(C)CC1` (stereo not shown) [Compound No. 52, 1-(4-fluorophenyl)-2-(2,3,4,5-tetrahydro-3,9-dimethylazepino[4,5-b]indol-6(1H)-yl)ethanol] has an inhibition at 1 µM of 103%. In the case of `CN1CCc2c(n(CC(=O)N3CCCC3)c3ccc(Cl)cc23)CC1` [Compound No. 53, 2-(9-chloro-2,3,4,5-tetrahydro-3-methylazepino[4,5-b]indol-6(1H)-yl)-1-(pyrrolidin-1-yl)ethanone], the inhibition at 1 µM is reported as 3%. With `Cc1ccc2c(c1)c1c(n2CC(=O)NC(C)C)CCN(C)CC1` [Compound No. 54, 2-(2,3,4,5-tetrahydro-3,9-dimethylazepino[4,5-b]indol-6(1H)-yl)-N-isopropylacetamide] the inhibition at 1 µM was 1%. `Cc1ccc2c(c1)c1c(n2CC(=O)OC2CCCC2)CCN(C)CC1` [Compound No. 55, Cyclopentyl-2-(2,3,4,5-tetrahydro-3,9-dimethylazepino[4,5-b]indol-6(1H)-yl)acetate] gave an inhibition at 1 µM of 7%. In the case of `CN1CCc2c(n(CCc3ccccc3)c3ccc(Cl)cc23)CC1` [Compound No. 56, 9-chloro-1,2,3,4,5,6-hexahydro-3-methyl-6-phenethylazepino[4,5-b]indole], the inhibition at 1 µM is reported as 91%. Work on `CN1CCc2c(n(CC(=O)N3CCCCC3)c3ccc(Cl)cc23)CC1` [Compound No. 57, 2-(9-chloro-2,3,4,5-tetrahydro-3-methylazepino[4,5-b]indol-6(1H)-yl)-1-(piperidin-1-yl)ethanone] yielded an inhibition at 1 µM of 87%. `CN1CCc2c(n(CC(O)c3ccc(F)c(F)c3)c3ccc(Cl)cc23)CC1` (stereo not shown) [Compound No. 58, 2-(9-chloro-2,3,4,5-tetrahydro-3-methylazepino[4,5-b]indol-6(1H)-yl)-1-(3,4-difluorophenyl)ethanol] was tested, and the inhibition at 1 µM was 10%. For `Cc1ccc2c(c1)c1c(n2CC(O)c2ccc(F)cc2F)CCN(C)CC1` (stereo not shown) [Compound No. 59, 1-(2,4-difluorophenyl)-2-(2,3,4,5-tetrahydro-3,9-dimethylazepino[4,5-b]indol-6(1H)-yl)ethanol], the inhibition at 1 µM was 9%. In the case of `CN1CCc2c(n(CC(=O)N3CCOCC3)c3ccc(Cl)cc23)CC1` [Compound No. 60, 2-(9-chloro-2,3,4,5-tetrahydro-3-methylazepino[4,5-b]indol-6(1H)-yl)-1-morpholinoethanone], the inhibition at 1 µM is reported as 53%. For `CN1CCc2c(n(CCc3ccccc3F)c3ccc(Cl)cc23)CC1` [Compound No. 61, 6-(2-fluorophenethyl)-9-chloro-1,2,3,4,5,6-hexahydro-3-methylazepino[4,5-b]indole], the inhibition at 1 µM was 103%. `Cc1ccc2c(c1)c1c(n2CCc2ccccc2)CCN(C)CC1` [Compound No. 62, 1,2,3,4,5,6-hexahydro-3,9-dimethyl-6-phenethylazepino[4,5-b]indole] gave an inhibition at 1 µM of 98%. For `Cc1ccc2c(c1)c1c(n2CCc2ccccc2F)CCN(C)CC1` [Compound No. 63, 6-(2-fluorophenethyl)-1,2,3,4,5,6-hexahydro-3,9-dimethylazepino[4,5-b]indole], the inhibition at 1 µM was 73%. In the case of `COc1ccc(C(O)Cn2c3c(c4cc(Cl)ccc42)CCN(C)CC3)cc1F` (stereo not shown) [Compound No. 67, 2-(9-chloro-2,3,4,5-tetrahydro-3-methylazepino[4,5-b]indol-6(1H)-yl)-1-(3-fluoro-4-methoxyphenyl) ethanol], the inhibition at 1 µM is reported as 99%. `COc1ccc(C(O)Cn2c3c(c4cc(C)ccc42)CCN(C)CC3)cc1F` (stereo not shown) [Compound No. 68, 1-(3-fluoro-4-methoxyphenyl)-2-(2,3,4,5-tetrahydro-3,9-dimethylazepino[4,5-b]indol-6(1H)-yl)ethanol] showed an inhibition at 1 µM of 100%.
